According to patent US20140288040A1, “SUBSTITUTED BENZYLAMINE COMPOUNDS, THEIR USE IN MEDICINE, AND IN PARTICULAR THE TREATMENT OF HEPATITIS C VIRUS (HCV) INFECTION” (ASTEX THERAPEUTICS LIMITED, priority 2011, published 2014):
Structures can show the parent of a compound that is named as a salt. Where two headings read alike, the source gives them in different places.

Key:
[1] = system: HCV subgenomic replicon in Huh-7 cells; experiment: Replicon assay, EC50 luciferase readout; type: cell-based, hepatitis C virus (HCV)
Procedure: The activities of compounds of the invention against HCV in a cellular environment were analysed using a replicon assay as described below.
Thus, Huh-7 cells persistently infected with an HCV-RNA construct (Bartenschlager, R. Hepatitis C replicons: potential role for drug development. Nature Rev. Drug Discov. 1, 911-916 (2002)) comprising: 5′ and 3′ non-translated regions (NTR); the non-structural genes NS3 to NS5b; as well as the G418 drug resistance gene, neomycin, (for selection of cells carrying HCV replicon RNA) fused to the firefly Luciferase reporter gene (pFK13889luc-ubi-neoNS3-3′ET), were used to determine the cell based antiviral activity of compounds using luciferase activity as an indirect readout of HCV RNA load. In this assay […] huh-7 cells persistently infected with the HCV subgenomic replicon construct above were platedwell in a 96 well tissue culture plate. The cells were allowed to attach overnight in DMEM medium supplemented with 10% FBS 1% NEAA, and 250 μgml gentamicin. The following day the medium was replaced with 200 μlwell of fresh medium as described above lacking gentamicin. […] Plates were then incubated at 37° C. in an atmosphere of 5% CO2 and air for 72 h. […] The plate was then read at 535 nm (excitation) and 590 nm (emission) on a SpectraMax Gemini reader (Molecular Devices) to determine the number of viable cells by measuring the conversion of rezasurin (Alamar blue) to resorufin in response to mitochondrial activity. In order to determine the antiviral effect of these compounds EC50 values were determined by measuring the luciferase activity of the cells. Alamar blue solution was removed from the wells and replaced with 100 μlwell of medium along with 100 μlwell of Bright-Glo reagent and incubated at room temperature for 5 minutes before transferring 100 μlwell to a white bottom 96 well plate to read in a luminometer as described in the Bright-Glo Luciferase Assay System protocol (promega).

[2] = molecular target: T1, HCV NS3 protease (full length NS34a) (Hepatitis C virus genotype 1b, UniProt P26663); experiment: HCV NS3 protease assay (FRET, full length NS34a); type: biochemical
T1 construct: The protease activity of the full length NS34a was measured using a FRET-based assay; made in house
T1 sequence (P26663 1658-1711): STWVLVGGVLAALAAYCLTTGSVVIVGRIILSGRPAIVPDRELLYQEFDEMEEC
T1 sequence (P26663 1027-1657): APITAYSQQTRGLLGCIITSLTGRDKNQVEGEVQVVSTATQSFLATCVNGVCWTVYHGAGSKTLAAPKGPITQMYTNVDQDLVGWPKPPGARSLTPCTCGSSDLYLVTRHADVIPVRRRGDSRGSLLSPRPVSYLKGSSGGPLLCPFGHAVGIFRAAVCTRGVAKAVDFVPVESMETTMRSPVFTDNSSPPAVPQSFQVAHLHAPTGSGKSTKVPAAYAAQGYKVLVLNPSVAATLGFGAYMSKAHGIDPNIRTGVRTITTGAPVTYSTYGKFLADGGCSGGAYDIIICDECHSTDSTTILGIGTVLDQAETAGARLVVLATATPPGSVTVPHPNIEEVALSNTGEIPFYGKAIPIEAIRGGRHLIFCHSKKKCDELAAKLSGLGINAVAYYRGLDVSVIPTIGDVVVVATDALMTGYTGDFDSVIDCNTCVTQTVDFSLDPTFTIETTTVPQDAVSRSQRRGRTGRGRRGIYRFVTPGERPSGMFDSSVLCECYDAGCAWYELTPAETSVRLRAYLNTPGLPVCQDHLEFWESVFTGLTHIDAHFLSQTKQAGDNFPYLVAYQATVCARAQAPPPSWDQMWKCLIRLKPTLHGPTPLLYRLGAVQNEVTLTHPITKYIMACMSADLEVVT
Summary of the method: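 Full-length NS34a incubated with compound and an NS4AB cleavage-site FRET peptide (QXL520 quencher, 5-FAMsp fluorophore) in 50 mM Tris pH8, 20 mM DTT, 1% CHAPS, 10% glycerol, 5% DMSO. Fluorescence followed for 30 minutes at room temperature; IC50 from initial rates of replicate progress curves.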

[3] = Hepatitis C virus, Huh-7, 72 h, read-out: Activity EC50 (μM) (EC50 luciferase readout), Huh-7 replicon cells, 72 h, single value, or second value of a pair x:y
[4] = Hepatitis C virus, Huh-7, replicon assay, set in line with previous observations, read-out: pre-determined EC50 set for the combination experiments
[5] = protease activity of full length NS34a, FRET peptide substrate, read-out: Activity IC50
[6] = Hepatitis C virus, Huh-7, 72 h, Huh-7 replicon cells, 72 h, single value, or second value of a pair x:y, read-out: Activity EC50 (μM) (EC50 luciferase readout)
[7] = IC50 values of 10-150 μM against the protease activity of the full length NS34a, or at least 40% inhibition of protease activity at a concentration of 100 μM

| Compound | EC50 [1, 6] [µM] | further results |
| --- | --- | --- |
| CC[C@@H](N[C@@H](C)CC(N)=O)c1ccc(Cl)c(Oc2ccc(C(N)=O)cc2)c1F.Cl [Example 444] | – | EC50 [1, 3]: 0.82 µM |
| CC(C)(C)OC(=O)N[C@H]1CCCCC/C=C\[C@@H]2C[C@@]2(C(=O)NS(=O)(=O)C2CC2)NC(=O)[C@@H]2C[C@@H](OC(=O)N3Cc4cccc(F)c4C3)CN2C1=O [Danoprevir, reference compound] | – | EC50 [1, 4]: 0.001 µM |
| CC(N)c1ccc(F)c(Oc2ccccc2)c1F (centres unmarked) [Example 4] | 13 | IC50 [2, 5]: 7000 nM |
| CC[C@H](NCC(N)=O)c1ccc(F)c(Oc2ccccc2)c1F [Example 301] | 26 | – |
| CC[C@@H](N[C@@H](C)CC(=O)NCCN)c1ccc(Cl)c(Oc2ccc(N)c(C)c2)c1F [Example 238B, (S)—N-(2-Amino-ethyl)-3-{(R)-1-[3-(4-amino-3-methyl-phenoxy)-4-chloro-2-fluoro-phenyl]-propylamino}-butyramide] | 0.03 | inhibition at 0.03 µM ([2]; read-out: Activity % inhibition @ 0.03 μM, 0.03 μM compound): 58%; EC50 [1, 4]: 0.03 µM |
| CC[C@@H](N[C@@H](C)CC(N)=O)c1ccc(Cl)c(Oc2ccc(C#N)c(OC)c2)c1F [Example 210] | – | IC50 [2, 5]: 160 nM; EC50 [1, 3]: 0.2 µM |
| CNC(CC(C)C)c1ccc(F)c(Oc2ccccc2)c1F (centres unmarked) [Example 16, [1-(2,4-Difluoro-3-phenoxy-phenyl)-3-methyl-butyl]-methyl-amine. hydrochloride] | 0.58 | IC50 [2, 5]: 4000 nM |
| CC[C@@H](N[C@@H](C)CC(N)=O)c1ccc(Cl)c(Oc2ncc(N)cn2)c1F.Cl [Example 433] | 1.6 | – |
| CC(C)CC(N)c1ccc(F)c(Oc2ccccc2)c1F (centres unmarked) [Example 2] | 2.4 | IC50 [2, 5]: 2200 nM |
| CCC(NC1CCCNC1)c1ccc(F)c(Oc2ccccc2)c1F (centres unmarked) [Example 17] | 2.8 | IC50 [2, 7]: 10000 to 150000 nM |
| CC[C@@H](N[C@@H](C)CC(N)=O)c1ccc(Cl)c(Oc2ccc3c(c2)OCC3)c1F [Example 233] | 0.079 | IC50 [2, 5]: 110 nM |
| CC[C@H](N)c1ccc(F)c(Oc2ccccc2)c1F [Example 52] | 9.4 | IC50 [2, 5]: 1800 nM |
| CCCC(N)c1ccc(F)c(Oc2ccccc2)c1F (centres unmarked) [Example 12] | 10 | IC50 [2, 5]: 1200 nM |
| CC[C@@H](N[C@@H](C)CC(=O)NCCNCc1ccccc1)c1ccc(Cl)c(Oc2ccccc2)c1F [Example 265] | 0.47 | IC50 [2, 5]: 1100 nM |
| CC[C@@H](N)c1ccc(Cl)c(Oc2ccccc2)c1F [Example 78] | 9.6 | IC50 [2, 5]: 1200 nM |
| CC[C@H](NC(C)CO)c1ccc(Cl)c(Oc2ccccc2)c1F (some centres unmarked) [Example 81] | 11 | IC50 [2, 5]: 390 nM |
| OCCN[C@H](CC1CCNCC1)c1ccc(F)c(Oc2ccccc2)c1F [Example 87B, 2-[(R)-1-(2,4-Difluoro-3-phenoxy-phenyl)-2-piperidin-4-yl-ethylamino]-ethanol] | 3.9 | IC50 [2, 7]: 10000 to 150000 nM |
| C[C@@H](CC(N)=O)N[C@H](CC1CCNCC1)c1ccc(F)c(Oc2ccccc2)c1F [Example 84] | 18 | IC50 [2, 5]: 450 nM |
| CC[C@@H](N[C@@H](C)CC(N)=O)c1ccc(Cl)c(Oc2ccc(F)c(C(=O)N3CCOCC3)c2)c1F.Cl [Example 423] | 1.4 | – |
| CC[C@@H](NC(C)(C)CC(N)=O)c1ccc(Cl)c(Oc2ccc(N)nc2)c1F [Example 460, 3-{[(1R)-1-{3-[(6-aminopyridin-3-yl)oxy]-4-chloro-2-fluorophenyl}propyl]amino}-3-methylbutanamide hydrochloride (1:1)] | 0.13 | – |
| CC[C@@H](N[C@@H](C)CC(N)=O)c1ccc(Cl)c(Oc2cnc(N)cn2)c1F.Cl [Example 429] | 3 | – |
| CC[C@@H](N[C@@H](C)CC(N)=O)c1ccc(Cl)c(Oc2ccc(-c3ccn[nH]3)cc2)c1F.Cl [Example 417] | 0.91 | – |
| CC[C@@H](N[C@@H](C)CC(N)=O)c1ccc(Cl)c(Oc2ccc3c(c2)OCCN3)c1F.Cl [Example 409] | 0.02 | – |
| [2H]C([2H])([2H])C([2H])([2H])[C@@H](N[C@@H](C)CC(N)=O)c1ccc(Cl)c(Oc2ccccc2)c1F [Example 472] | > 3 | – |

| Compound | EC50 [1, 6] [µM] | further results |
| --- | --- | --- |
| CC[C@H](NCCC(=O)NO)c1ccc(F)c(Oc2ccccc2)c1F [Example 302] | 6.9 | – |
| CC[C@@H](N[C@@H](C)CC(N)=O)c1ccc(Cl)c(Oc2ccc(F)c(C(=O)NC)c2)c1F.Cl [Example 421] | 0.4 | – |
| C[C@@H](CC(N)=O)N[C@@H](c1ccc(Cl)c(Oc2ccc(N)nc2)c1F)C1CC1.Cl [Example 454] | – | EC50 [1, 3]: 0.16 µM |
| C[C@@H](CC(N)=O)N[C@@H](c1ccc(Cl)c(Oc2ccc(C(N)=O)nc2)c1F)C1CC1.Cl [Example 456] | > 3 | – |
| CC[C@@H](N[C@@H](C)CC(N)=O)c1ccc(Cl)c(Oc2ccc(Cl)cc2)c1F.Cl [Example 400] | 3 | – |
| CCNC(=O)CNC(=O)C[C@H](C)N[C@H](CC)c1ccc(Cl)c(Oc2ccccc2)c1F [Example 243] | 3.8 | – |
| CC[C@@H](N[C@@H](C)CC(N)=O)c1ccc(Cl)c(Oc2ccc(F)c(C(N)=O)c2)c1F.Cl [Example 419] | 0.82 | – |
| CC[C@@H](N[C@@H](C)CC(N)=O)c1ccc(Cl)c(Oc2ccc(NC(C)=O)nc2)c1Cl [Example 458] | 3.5 | – |
| CC[C@@H](N[C@@H](C)CC(N)=O)c1ccc(Cl)c(Oc2nc3cnccc3s2)c1F.Cl [Example 438] | > 3 | – |
| CC[C@@H](N[C@@H](C)CC(N)=O)c1ccc(Cl)c(Oc2ccc(NC(C)=O)cc2)c1F [Example 405] | 0.3 | – |
| CC[C@@H](N[C@@H](C)CC(N)=O)c1ccc(Cl)c(Oc2ncccn2)c1F.Cl [Example 431] | > 3 | – |
| C[C@@H](CC(N)=O)N[C@@H](c1ccc(Cl)c(Oc2ccccc2)c1F)C1CC1 [Example 459] | 0.63 | – |
| CC[C@@H](N[C@@H](C)CC(N)=O)c1ccc(Cl)c(Oc2ccc(N)cc2)c1F.Cl [Example 404] | 0.023 | – |
| CC[C@@H](N[C@@H](C)CC(N)=O)c1ccc(Cl)c(Oc2ccc(NC(=O)N(C)C)cc2)c1F.Cl [Example 407] | 0.11 | – |
| CC[C@@H](N[C@@H](C)CC(N)=O)c1ccc(Cl)c(Oc2ccc3c(c2)OCCO3)c1F.Cl [Example 410] | 0.31 | – |
| CC[C@@H](N[C@@H](C)CC(N)=O)c1ccc(Cl)c(Oc2ccc(F)c(C(=O)N(C)C)c2)c1F.Cl [Example 425] | 0.35 | – |
| CC[C@@H](N[C@@H](C)CC(N)=O)c1ccc(Cl)c(Oc2ccccc2)c1C [Example 468] | > 3 | – |
| CC[C@@H](N[C@@H](C)CC(N)=O)c1ccc(Cl)c(Oc2ccccn2)c1F.Cl [Example 413] | 3 | – |
| CC(C)(C)C#Cc1cc(N(C(=O)[C@H]2CC[C@H](C)CC2)[C@H]2CC[C@H](O)CC2)c(C(=O)O)s1 [VX-222, Lomibuvir, reference compound] | – | EC50 [1, 4]: 0.003 µM |
| CCC(NC1CCCNC1)c1ccc(F)c(Oc2ccccc2)c1F (centres unmarked) [Example 18] | – | EC50 ([1]; Huh-7 replicon cells, 72 h, single value, or second value of a pair x:y, read-out: Activity EC50 (μM) (EC50 luciferase readout)): 1.6 µM |
| CC[C@@H](N)c1ccc(Cl)c(Oc2ccc3c(c2)C(C)(C)CN3)c1F [Example 270] | – | IC50 [2, 5]: 1600 nM |
| CC[C@@H](N)c1ccc(Cl)c(Oc2ccc([N+](=O)[O-])cc2)c1F [Example 197] | – | IC50 [2, 5]: 2600 nM |
| CC[C@@H](N[C@@H](C)CC(N)=O)c1ccc(Cl)c(Oc2nc3ccccc3s2)c1F.Cl [Example 435] | 3 | – |
